Experimental data reported in patent publication US9023789B2, “Amylin analogs and pharmaceutical compositions thereof” (Novo Nordisk A/S, priority 2012, dated 2015).
In brackets after ≈: the same amount, converted by molar mass. Like-named read-outs stand apart in the source and are kept apart here. Numbered stars: 1 amine (or outer) side, 2 acyl side, 3 side chain; on linkers, the order of the positions; unused ones are H or OH. Bridge positions count the residues as written; N and C are the ends. Side chains are listed from the residue outwards. Peptide text beside a SMILES is read from it. * marks the point of attachment. C20 diacid = O=C(O)CCCCCCCCCCCCCCCCCCC(=O)*; γGlu = O=C(O)[C@H](CCC(=O)[*:2])N[*:1]

Tests used:
[1] = biological target: T1, human calcitonin (a) receptor in BHK570 cells (Homo sapiens, UniProt P30988); assay: ASSAY (II)a functional assay, human calcitonin receptor (CRE luciferase); type: cell-based; conditions: read-out: hCTR funct. EC50
T1 construct: expressed in transfected cells
T1 sequence (P30988 25-474): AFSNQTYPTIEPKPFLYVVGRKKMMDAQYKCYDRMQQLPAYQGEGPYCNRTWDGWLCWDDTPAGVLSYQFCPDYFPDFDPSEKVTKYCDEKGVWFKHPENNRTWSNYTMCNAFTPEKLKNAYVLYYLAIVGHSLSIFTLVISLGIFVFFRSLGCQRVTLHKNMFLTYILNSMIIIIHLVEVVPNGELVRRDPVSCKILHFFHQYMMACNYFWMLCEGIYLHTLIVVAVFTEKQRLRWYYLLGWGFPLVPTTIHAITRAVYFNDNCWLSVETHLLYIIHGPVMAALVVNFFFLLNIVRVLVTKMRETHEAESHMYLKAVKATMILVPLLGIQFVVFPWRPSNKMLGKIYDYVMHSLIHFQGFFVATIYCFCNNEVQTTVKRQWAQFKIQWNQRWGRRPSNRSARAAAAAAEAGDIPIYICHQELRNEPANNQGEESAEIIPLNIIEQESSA
Summary of the method: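 Readout is luminescence from a cAMP-responsive CRE-luc reporter, developed with LucLite for 30 min at room temperature. Cells were treated for 3 h at 37 °C in 10% FBS/DMEM buffered with 10 mM Hepes (pH 7.4).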

[2] = ASSAY (IX) pK, determination of T½ in mini-pig; type: in vivo; conditions: male, Göttingen, minipig, plasma, iv, 2 nmol/kg
Male Wistar rats = assay: ASSAY (XII) effect from single subcutaneous administration on plasma calcium in rats; type: in vivo, rat; conditions: for Plasma calcium red (%) 0-12 h (maximal): single s.c., compared to vehicle; for suppression of plasma calcium level relative to vehicle: monitored over 24 hours
Summary of the method: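 Male Wistar rats (~250 g), groups of five, received a single subcutaneous dose at time 0. Blood drawn at −15 min, 1, 2, 4, 7, 12 and 24 h; total calcium measured in heparin plasma, reported as mean±SEM.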

[3] = ASSAY (IV) determination of solubility; type: physicochemical
Summary of the method: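 UPLC read-out of polypeptide concentration after centrifugation. Samples: aqueous polypeptide stock ([…]) + 100 mM buffer 1:1, glycylglycine pH 3.0–5.0 or bistrispropane pH 6.0–8.0; 18 h, RT.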

[4] = ASSAY (X) pK, determination of T½ in rat; type: in vivo; conditions: male, Sprague Dawley, plasma, iv, 20 nmol/kg
Male Sprague-Dawley rats = assay: ASSAY (XI) single subcutaneous administration, food intake monitored for 48 hours in rats; type: in vivo, rat; conditions: for Food intake red (%) 0-24 h / Food intake red (%) 24-48 h: single s.c., compared to vehicle; for food intake monitored over 48 hours: single subcutaneous administration, versus vehicle
Summary of the method: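 Male Sprague-Dawley rats from Taconic Europe, weighing about 250 g on the test day, were singly housed in an online food intake monitoring system (Ellegaard MBRose, Denmark). Before the study they were acclimatized to a reversed light cycle, with lights on from 10 PM to 10 AM. Each rat then received one subcutaneous dose of the analogue, and data are reported as mean±SEM.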

[5] = biological target: T2, human calcitonin receptor (Homo sapiens, UniProt P30988); assay: ASSAY (VII) binding to the human calcitonin receptor (SPA, 125I-Calcitonin); conditions: read-out: hCTR bind IC50;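 further: cell membranes (35 ng/µL) combined with SPA beads in 40 µL of pH 7.4 Hepes buffer, 384-well format, signal counted on a TopCounter instrument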
T2 construct: expressed in transfected cells
T2 sequence (P30988 25-474): T1 sequence (P30988 25-474)

[6] = bistrispropane buffer, pH 6.5, read-out: Solubility pH 6.5 Concentration
[7] = bistrispropane buffer, pH 7.5, read-out: Solubility pH 7.5 Concentration
[8] = bistrispropane buffer, pH 6.0, read-out: Solubility pH 6.0 Concentration
[9] = bistrispropane buffer, pH 7.0, read-out: Solubility pH 7.0 Concentration
[10] = bistrispropane buffer, pH 8.0, read-out: Solubility pH 8.0 Concentration
[11] = glycylglycine buffer, pH 3.0, read-out: Solubility pH 3.0 Concentration
[12] = glycylglycine buffer, pH 4.0, read-out: Solubility pH 4.0 Concentration
[13] = glycylglycine buffer, pH 5.0, read-out: Solubility pH 5.0 Concentration

| EC50 [1] [µM] | half-life [2] [h] | Plasma calcium red (%) 0-12 h (maximal) (Male Wistar rats; 30 nmol/kg) [%] | solubility at 18 h [3, 6] [µM] | solubility at 18 h [3, 7] [µM] | solubility at 18 h [3, 8] [µM] | solubility at 18 h [3, 9] [µM] | solubility at 18 h [3, 10] [µM] | solubility at 18 h [3, 11] [µM] | solubility at 18 h [3, 12] [µM] | solubility at 18 h [3, 13] [µM] | half-life [4] [h] | IC50 [5] [µM] | Structure (SMILES) | Food intake red (%) 0-24 h (Male Sprague-Dawley rats; 30 nmol/kg) [%] | Food intake red (%) 24-48 h (Male Sprague-Dawley rats; 30 nmol/kg) [%] | food intake monitored over 48 hours (Male Sprague-Dawley rats; 30 nmol/kg) | other results |
| --- | --- | --- | --- | --- | --- | --- | --- | --- | --- | --- | --- | --- | --- | --- | --- | --- | --- |
| 0.0192 | 104 | 0 | ≥ 200 | 157 (≈ 716 µg/mL) | ≥ 200 | ≥ 200 | ≥ 200 | ≥ 200 | ≥ 200 | ≥ 200 | 20 | 0.133 | CC[C@H](C)[C@H](NC(=O)[C@H](C)NC(=O)CNC(=O)[C@H](Cc1ccccc1)NC(=O)[C@H](CC(N)=O)NC(=O)[C@@H]1CCCN1C(=O)[C@H](CO)NC(=O)[C@H](CO)NC(=O)[C@H](Cc1c[nH]cn1)NC(=O)[C@H](CCCNC(=N)N)NC(=O)[C@H](CC(C)C)NC(=O)[C@H](Cc1ccccc1)NC(=O)[C@H](CC(N)=O)NC(=O)[C@H](C)NC(=O)[C@H](CC(C)C)NC(=O)[C@H](CCCNC(=N)N)NC(=O)[C@H](CCC(N)=O)NC(=O)[C@@H](NC(=O)[C@H](C)NC(=O)[C@@H]1CSSC[C@H](NC(=O)[C@@H](N)CCCCNC(=O)CC[C@H](NC(=O)CC[C@H](NC(=O)CCCCCCCCCCCCCCCCCCC(=O)O)C(=O)O)C(=O)O)C(=O)N[C@@H](CC(N)=O)C(=O)N[C@@H]([C@@H](C)O)C(=O)N[C@@H](C)C(=O)N[C@@H]([C@@H](C)O)C(=O)N1)[C@@H](C)O)C(=O)N1CCC[C@H]1C(=O)N[C@@H](CO)C(=O)N[C@@H](CO)C(=O)N[C@H](C(=O)N[C@@H](CC(N)=O)C(=O)N[C@H](C(=O)NCC(=O)N[C@@H](Cc1c[nH]cn1)C(=O)N[C@@H](CC(N)=O)C(=O)N[C@H](C(=O)N[C@@H](Cc1ccc(O)cc1)C(N)=O)[C@@H](C)O)C(C)C)[C@@H](C)O [Example 86] (H-K([γGlu-γGlu-C20 diacid])CNTATCATQRLANFLRHSSPNFGAIPSSTNVGHNTY-NH2; disulfide 2-7) | 48 | 26 | reduces food intake | suppression of plasma calcium level relative to vehicle (Male Wistar rats; single subcutaneous administration, increasing doses (all doses tested)): None of the doses trigger a notable suppression of the calcium level |
| 0.00236 | 49 | 6 | ≥ 200 | ≥ 200 | ≥ 200 | ≥ 200 | ≥ 200 | ≥ 200 | ≥ 200 | ≥ 200 | 37 | 0.00214 | CC[C@H](C)[C@H](NC(=O)[C@H](C)NC(=O)CNC(=O)[C@H](Cc1ccccc1)NC(=O)[C@H](CC(N)=O)NC(=O)[C@@H]1CCCN1C(=O)[C@H](CO)NC(=O)[C@H](CO)NC(=O)[C@H](Cc1c[nH]cn1)NC(=O)[C@H](CCCNC(=N)N)NC(=O)[C@H](CC(C)C)NC(=O)[C@H](Cc1ccccc1)NC(=O)[C@H](CCC(=O)O)NC(=O)[C@H](C)NC(=O)[C@H](CC(C)C)NC(=O)[C@H](CCCNC(=N)N)NC(=O)[C@H](CCC(N)=O)NC(=O)[C@@H](NC(=O)[C@H](C)NC(=O)[C@@H]1CSSC[C@H](NC(=O)[C@@H](N)CCCCNC(=O)CC[C@H](NC(=O)CC[C@H](NC(=O)CCCCCCCCCCCCCCCCCCC(=O)O)C(=O)O)C(=O)O)C(=O)N[C@@H](CC(N)=O)C(=O)N[C@@H]([C@@H](C)O)C(=O)N[C@@H](C)C(=O)N[C@@H]([C@@H](C)O)C(=O)N1)[C@@H](C)O)C(=O)N1CCC[C@H]1C(=O)N[C@@H](CO)C(=O)N[C@@H](CO)C(=O)N[C@H](C(=O)N[C@@H](CC(N)=O)C(=O)N[C@H](C(=O)NCC(=O)N1CCC[C@H]1C(=O)N[C@@H](CCC(=O)O)C(=O)N[C@H](C(=O)N[C@@H](Cc1ccc(O)cc1)C(N)=O)[C@@H](C)O)C(C)C)[C@@H](C)O [Example 106] (H-K([γGlu-γGlu-C20 diacid])CNTATCATQRLAEFLRHSSPNFGAIPSSTNVGPETY-NH2; disulfide 2-7; N-terminus assumed) | 63 | 69 | reduce food intake |  |
|  | 95 | 27 | ≥ 200 | ≥ 200 | ≥ 200 | ≥ 200 | ≥ 200 | ≥ 200 | ≥ 200 | ≥ 200 | 17 |  | CC[C@H](C)[C@H](NC(=O)[C@H](C)NC(=O)CNC(=O)[C@H](Cc1ccccc1)NC(=O)[C@H](CC(N)=O)NC(=O)[C@@H]1CCCN1C(=O)[C@H](CO)NC(=O)[C@H](CO)NC(=O)[C@H](Cc1c[nH]cn1)NC(=O)[C@H](CCCNC(=N)N)NC(=O)[C@H](CC(C)C)NC(=O)[C@H](Cc1ccccc1)NC(=O)[C@H](CCC(=O)O)NC(=O)[C@H](C)NC(=O)[C@H](CC(C)C)NC(=O)[C@H](CCCNC(=N)N)NC(=O)[C@H](CCC(N)=O)NC(=O)[C@@H](NC(=O)[C@H](C)NC(=O)[C@@H]1CSSC[C@H](NC(=O)[C@@H](N)CCCCNC(=O)CC[C@H](NC(=O)CCCCCCCCCCCCCCCCCCC(=O)O)C(=O)O)C(=O)N[C@@H](CC(N)=O)C(=O)N[C@@H]([C@@H](C)O)C(=O)N[C@@H](C)C(=O)N[C@@H]([C@@H](C)O)C(=O)N1)[C@@H](C)O)C(=O)N1CCC[C@H]1C(=O)N[C@@H](CO)C(=O)N[C@@H](CO)C(=O)N[C@H](C(=O)N[C@@H](CC(N)=O)C(=O)N[C@H](C(=O)NCC(=O)N1CCC[C@H]1C(=O)N[C@@H](CCC(=O)O)C(=O)N[C@H](C(=O)N[C@@H](Cc1ccc(O)cc1)C(N)=O)[C@@H](C)O)C(C)C)[C@@H](C)O [Example 109] (H-K([γGlu-C20 diacid])CNTATCATQRLAEFLRHSSPNFGAIPSSTNVGPETY-NH2; disulfide 2-7 (inferred); N-terminus assumed) | 89 | 91 | reduces food intake | Plasma calcium red (%) 0-12 h (maximal) (Male Wistar rats; 3 nmol/kg): 7%; suppression of plasma calcium level relative to vehicle (Male Wistar rats; single subcutaneous 3 nmol/kg): does not trigger a notable suppression of the calcium level; suppression of plasma calcium level relative to vehicle (Male Wistar rats; single subcutaneous 30 nmol/kg): induces a minor suppression of the calcium level; suppression of plasma calcium level relative to vehicle (Male Wistar rats; single subcutaneous 100 nmol/kg): induces a more pronounced suppression of the calcium level; suppression of plasma calcium level relative to vehicle (Male Wistar rats; single subcutaneous 300 nmol/kg): induces a more pronounced suppression of the calcium level; Food intake red (%) 0-24 h (Male Sprague-Dawley rats; 3 nmol/kg): 57%; Food intake red (%) 24-48 h (Male Sprague-Dawley rats; 3 nmol/kg): 50% |
